# Laboratory results as given in ChEMBL document CHEMBL1133826, “Design, synthesis, and biological activity of diiminoisoindolines as complement component 3a antagonists” (Bioorg Med Chem Lett, 2001).
# pIC50: −log10 of the molar value.
# Assays:
# Rattus norvegicus [1] = assay: Percent inhibition against C3a receptor induced wheal formation in rat at the dose of 30 mg/Kg administered intraperitoneally
# Homo sapiens [2] = organism: Homo sapiens; assay: Inhibitory concentration against C3a receptor induced chemotaxis in human eosinophils; format: functional, organism-based
# Homo sapiens [3] = organism: Homo sapiens; assay: Concentration required for 50% inhibition of binding against C3a receptor induced calcium mobilization in human neutrophil; format: functional, organism-based
# Rattus norvegicus [4] = assay: Percent inhibition against C3a receptor induced wheal formation in rat at the dose of 15 mg/Kg administered orally
# Rattus norvegicus [5] = assay: Percent inhibition against C3a receptor induced wheal formation in rat at the dose of 30 mg/Kg administered orally
# [6] = biological target: T1, C3a anaphylatoxin chemotactic receptor (Homo sapiens, UniProt Q16581); assay: Inhibition of complement component 3a (C3a) binding to C3a receptor in human neutrophil based assay
# T1 sequence (Q16581 whole entry): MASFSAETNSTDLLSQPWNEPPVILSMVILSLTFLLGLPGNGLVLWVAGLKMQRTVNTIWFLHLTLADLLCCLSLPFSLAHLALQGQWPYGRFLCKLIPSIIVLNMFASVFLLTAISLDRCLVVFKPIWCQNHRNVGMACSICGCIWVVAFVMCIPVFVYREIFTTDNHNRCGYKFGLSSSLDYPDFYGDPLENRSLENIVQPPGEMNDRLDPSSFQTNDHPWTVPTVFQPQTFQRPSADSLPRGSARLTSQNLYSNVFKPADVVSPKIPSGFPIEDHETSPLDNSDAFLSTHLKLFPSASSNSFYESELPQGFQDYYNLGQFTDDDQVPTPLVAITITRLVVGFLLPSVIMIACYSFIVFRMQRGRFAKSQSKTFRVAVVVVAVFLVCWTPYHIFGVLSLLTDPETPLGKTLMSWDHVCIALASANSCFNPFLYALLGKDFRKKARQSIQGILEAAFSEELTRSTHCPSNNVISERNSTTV
# [7] = biological target: T1, C3a anaphylatoxin chemotactic receptor; assay: Concentration required to inhibit complement component 3a (C3a) binding to C3a receptor in human neutrophil based assay; Not active at 25 uM
# Homo sapiens [8] = organism: Homo sapiens; assay: Percent inhibition against C3a receptor induced calcium mobilization in human neutrophil at the dose of 25 uM; format: functional
# Homo sapiens [9] = organism: Homo sapiens; assay: Inhibitory concentration against C3a receptor induced chemotaxis in human eosinophils; Not active at 25 uM; format: functional, organism-based
# Homo sapiens [10] = organism: Homo sapiens; assay: Percent inhibition against C3a receptor induced chemotaxis in human eosinophils at the dose of 25 uM; format: functional
smiles,measurement,setting,value
Fc1ccc(CC/N=C2\N=C(NCCc3ccc(F)cc3)c3ccccc32)cc1,inhibition,Rattus norvegicus [1],73%
same,pIC50,Homo sapiens [2],5.19
same,pIC50,Homo sapiens [3],5.51
same,inhibition,Rattus norvegicus [4],44%
same,inhibition,Rattus norvegicus [5],72%
same,pIC50,[6],4.94
Cc1ccc(CC/N=C2/CCC(NCCc3ccc(C)cc3)=N2)cc1,IC50,[7],Not Active
CN(C)CCOc1ccc2c(c1)/C(=N/CCc1ccc(F)cc1)N=C2NCCc1ccc(F)cc1,pIC50,Homo sapiens [2],5.11
same,pIC50,[6],5.27
CC(C)/N=C1\N=C(NC(C)C)c2ccccc21,IC50,[7],Not Active
CC(C/N=C1\N=C(NCC(C)c2ccc(Cl)cc2)c2ccccc21)c1ccc(Cl)cc1 (stereo unspecified),inhibition at 25 µM,Homo sapiens [8],69%
same,pIC50,[6],5.23
Clc1ccc(CC/N=C2\N=C(NCCc3ccc(Cl)cc3)c3ccccc32)cc1,inhibition,Rattus norvegicus [1],26%
same,pIC50,Homo sapiens [2],4.99
same,pIC50,Homo sapiens [3],5.09
same,inhibition,Rattus norvegicus [5],63%
same,pIC50,[6],5.15
Clc1cccc(CC/N=C2\N=C(NCCc3cccc(Cl)c3)c3ccccc32)c1,inhibition,Rattus norvegicus [1],72%
same,pIC50,Homo sapiens [3],5.27
same,IC50,Homo sapiens [9],Not Active
same,inhibition,Rattus norvegicus [4],28%
same,inhibition,Rattus norvegicus [5],55%
same,pIC50,[6],5.13
Cc1ccc(C/N=C2\N=C(NCc3ccc(C)cc3)c3ccccc32)cc1,inhibition,Rattus norvegicus [1],64%
same,pIC50,Homo sapiens [3],5.70
same,inhibition,Rattus norvegicus [4],30%
same,inhibition,Rattus norvegicus [5],61%
same,pIC50,[6],5.77
CCCOc1ccc2c(c1)/C(=N/CCc1ccc(F)cc1)N=C2NCCc1ccc(F)cc1,pIC50,Homo sapiens [2],5.21
same,inhibition at 25 µM,Homo sapiens [8],79%
same,pIC50,[6],5.22
Fc1ccc(CC/N=C2\N=C(NCCc3ccc(F)cc3)c3nccnc32)cc1,IC50,[7],Not Active
Fc1ccc(CC/N=C2\N=C(NCCc3ccc(F)cc3)c3cnccc32)cc1,pIC50,[6],4.87
Cc1ccc(C/N=C2\N=C(NCc3ccc(C)cc3)c3cc([N+](=O)[O-])ccc32)cc1,IC50,[7],Not Active
CC(C)NC1=N/C(=N\CCc2ccc(Cl)cc2)c2ccccc21,pIC50,[6],5.07
Cc1ccc(CC/N=C2\N=C(NCCc3ccc(C)cc3)c3cc(Cl)c(Cl)cc32)cc1,pIC50,[6],4.32
CC(=O)Nc1ccc2c(c1)/C(=N\Cc1ccc(C)cc1)N=C2NCc1ccc(C)cc1,pIC50,[6],4.49
N=C1N=C(NCCc2ccc(Cl)cc2)c2ccccc21,IC50,[7],Not Active
COc1ccc2c(c1)/C(=N/CCc1ccc(C)cc1)N=C2NCCc1ccc(C)cc1,pIC50,Homo sapiens [3],5.42
same,inhibition at 25 µM,Homo sapiens [10],37%
same,pIC50,[6],4.90
Cc1ccc(CC/N=C2\N=C(NCCc3ccc(C)cc3)c3ccccc32)cc1,inhibition,Rattus norvegicus [1],38%
same,pIC50,Homo sapiens [2],5.19
same,pIC50,Homo sapiens [3],5.48
same,inhibition,Rattus norvegicus [5],67%
same,pIC50,[6],5.21
